The results in this text go back to patent US8568784B2, “Nanoparticles for delivery of active agents” (Morehouse School of Medicine, priority 2006, dated 2013).

The series can be described thus: Percent entrapment and loading studies of particles. It counts as physicochemical. To be noted: entrapped in PCL-XP particles.

Molecules are shown by their SMILES.

Consider `O=S(=O)([O-])c1cc(S(=O)(=O)Cl)ccc1C1=c2cc3c4c(c2Oc2c1cc1c5c2CCCN5CCC1)CCC[N+]=4CCC3` [TR, Texas Red], for which the entrapment efficiency was around 100% and the “loading per weight of the particles” value is around 20%.
For `[Gd]` [gadolinium], in that order: around 100% and around 20%.
For `N.N.[Cl][Pt][Cl]` [cisplatin], in that order: around 100% and around 20%.
